{"source": "patent US20230146455A1", "about": "“TREATMENT OF INFLAMMATORY DISEASES WITH PEPTIDES AND PHARMACEUTICAL COMPOSITIONS” (Yuyu Pharma, Inc., priority 2020, published 2023)", "test_system": "CCL5/RANTES", "experiment": "Example 9 Luminex, LPS hPBMCs: CCL5/RANTES", "assay_type": "cell-based, human", "description": "Treatment Human PBMCs were pretreated with YY-101, YDE-011 and YDE-043 or reference compound; Xiidra® at various concentration (ranging from 1 nM to 100 uM) for 2 h before stimulation. An equal volume of 0.5% DMSO was used as a vehicle control. Then, the cells were treated with LPS at 5 ug/ml. The supernatants from treated cells were harvested at 24 h and placed in a 96 well for Luminex cytokine & chemokine profiling using a Luminex 200 multiplex assay (Luminex; R&D system, USA).\nThe main study arm with triplicate wells per group in a 24-well plate: • 1. Blank • 2. PBMC: 0.5% DMSO • 3. PBMC+LPS (5 ug/ml) • 4. PBMC+YY-101 100 uM • 5. PBMC+YY-101 10 uM • 6. PBMC+YY-101 1 uM • 7. PBMC+YY-101 0.1 uM • 8. PBMC+YY-101 0.01 uM • 9. PBMC+LPS (5 ug/ml)+Xiidra®100 uM • 10. PBMC+LPS (5 ug/ml)+Xiidra® 10 uM • 11. PBMC+LPS (5 ug/ml)+Xiidra® 1 uM • 12. PBMC+LPS (5 ug/ml)+Xiidra®0.1 uM • 13. PBMC+LPS (5 ug/ml)+Xiidra®0.01 uM • 14. PBMC+LPS (5 ug/ml)+Xiidra®0.001 uM • 15. PBMC+LPS (5 ug/ml)+YY-101 100 uM • 16. PBMC+LPS (5 ug/ml)+YY-101 10 uM • 17. PBMC+LPS (5 ug/ml)+YY-101 1 uM • 18. PBMC+LPS (5 ug/ml)+YY-101 0.1 uM • 19. PBMC+LPS (5 ug/ml)+YY-101 0.01 uM • 20. PBMC+LPS (5 ug/ml)+YY-101 0.001 uM • 21. PBMC+LPS (5 ug/ml)+YDE-011 100 uM • 22. PBMC+LPS (5 ug/ml)+YDE-011 10 uM • 23. PBMC+LPS (5 ug/ml)+YDE-011 1 uM • 24. PBMC+LPS (5 ug/ml)+YDE-011 0.1 uM • 25. PBMC+LPS (5 ug/ml)+YDE-011 0.01 uM • 26. PBMC+LPS (5 ug/ml)+YDE-011 0.001 uM • 27. PBMC+LPS (5 ug/ml)+YDE-043 100 uM • 28. PBMC+LPS (5 ug/ml)+YDE-043 10 uM • 29. PBMC+LPS (5 ug/ml)+YDE-043 1 uM • 30. PBMC+LPS (5 ug/ml)+YDE-043 0.1 uM • 31. PBMC+LPS (5 ug/ml)+YDE-043 0.01 uM • 32. PBMC+LPS (5 ug/ml)+YDE-043 0.001 uM\nMultiplex assay was used to measure 30 cytokines and chemokines. The 1:2, 1:10 and 1:200 diluted cell supernatant and serial dilution of the standard were dispensed into a 96 well plate at 50 ul/well. Then, the pre-mixed cocktail of antibody-coated magnetic beads was dispensed at 50 ul/well and incubated at room temperature for 2 h in a horizontal orbital microplate shaker at 800±500 rpm. The beads were washed using a magnetic device to prevent loss. The biotin-antibody was dispensed in 50 ul of each well and incubated at room temperature for 1 h in a shaker at 800±500 rpm. After washing, streptavidin-PE was added at 50 ul/well and incubated at room temperature for 30 min in a shaker under the same conditions. Finally, after washing, wash buffer (100 ul/well) was added to the plate and incubated in a shaker for 2 min. The Luminex™ 200 setting were set according to the manufacturer's protocol. The data was calculated with a standard five-parameter logistic nonlinear regression analysis of the data (xPonent software 4.2, USA). The levels of cytokine/chemokine are normalized to the live cell counts (1×10^5 cells/mL) and presented as concentrations per mL (pg/mL or ng/mL).", "key": {"[1]": {"details": "PBMC + LPS(5 ug/ml), test article 10 uM, single replicates (1st, 2nd, 3rd)"}, "[2]": {"details": "PBMC + LPS(5 ug/ml), test article 100 uM, Mean"}, "[3]": {"details": "PBMC + LPS(5 ug/ml), test article 100 uM, single replicates (1st, 2nd, 3rd)"}, "[4]": {"details": "PBMC without LPS, test article 0.01 uM, Mean"}, "[5]": {"details": "PBMC without LPS, test article 0.01 uM, single replicates (1st, 2nd)"}, "[6]": {"details": "PBMC without LPS, test article 0.1 uM, Mean"}, "[7]": {"details": "PBMC without LPS, test article 0.1 uM, single replicates (1st, 2nd)"}, "[8]": {"details": "PBMC without LPS, test article 1 uM, Mean"}, "[9]": {"details": "PBMC without LPS, test article 1 uM, single replicates (1st, 2nd)"}, "[10]": {"details": "PBMC without LPS, test article 10 uM, Mean"}, "[11]": {"details": "PBMC without LPS, test article 10 uM, single replicates (1st, 2nd)"}, "[12]": {"details": "PBMC without LPS, test article 100 uM, Mean"}, "[13]": {"details": "PBMC without LPS, test article 100 uM, single replicates (1st, 2nd)"}}, "note": "Several values for one entry are separate records, joined by “and”; a condition that tells them apart may be missing. Equal values may be shown once. Where a SMILES comes first, the peptide text is derived from it. [ ]: non-standard residue; d: D form. Hyp = O=C(O)[C@@H]1C[C@@H](O)CN1", "data": [{"smiles": "CC(C)C[C@H](NC(=O)CNC(=O)[C@H](CC(=O)O)NC(=O)[C@H](CCC(N)=O)NC(=O)CNC(=O)[C@@H]1C[C@@H](O)CN1)C(=O)N[C@@H](C)C(=O)NCC(=O)N1CCC[C@H]1C(=O)N[C@@H](CCCCN)C(=O)O", "note": "[YY-101] (H-[Hyp]GQDGLAGPK-OH; N-terminus and C-terminus assumed)", "values": [{"measurement": "Concentration (CCL5/RANTES)", "setting": "[1]", "result": "422.8 pg/mL and 449.1 pg/mL and 418.4 pg/mL"}, {"measurement": "MFI (Bead name: CCL5/RANTES)", "setting": "[1]", "result": "1173.5 and 1264.5 and 1158.5"}, {"measurement": "conc/live cell (CCL5/RANTES)", "setting": "[1]", "result": "70.5 pg/10^5 and 70.2 pg/10^5 and 55.1 pg/10^5"}, {"measurement": "Concentration (CCL5/RANTES)", "setting": "[2]", "result": 336.7, "unit": "pg/mL"}, {"measurement": "MFI (Bead name: CCL5/RANTES)", "setting": "[2]", "result": 881.7}, {"measurement": "conc/live cell (CCL5/RANTES)", "setting": "[2]", "result": 58.5, "unit": "pg/10^5"}, {"measurement": "Concentration (CCL5/RANTES)", "setting": "[3]", "result": "334.7 pg/mL and 330.4 pg/mL and 345.1 pg/mL"}, {"measurement": "MFI (Bead name: CCL5/RANTES)", "setting": "[3]", "result": "875.0 and 860.5 and 909.5"}, {"measurement": "conc/live cell (CCL5/RANTES)", "setting": "[3]", "result": "53.1 pg/10^5 and 53.3 pg/10^5 and 69.0 pg/10^5"}, {"measurement": "Concentration (CCL5/RANTES)", "setting": "[4]", "result": 36.8, "unit": "pg/mL"}, {"measurement": "MFI (Bead name: CCL5/RANTES)", "setting": "[4]", "result": 52.0}, {"measurement": "conc/live cell (CCL5/RANTES)", "setting": "[4]", "result": 7.4, "unit": "pg/10^5"}, {"measurement": "Concentration (CCL5/RANTES)", "setting": "[5]", "result": "27.5 pg/mL and 46.1 pg/mL"}, {"measurement": "MFI (Bead name: CCL5/RANTES)", "setting": "[5]", "result": "37.5 and 66.5"}, {"measurement": "conc/live cell (CCL5/RANTES)", "setting": "[5]", "result": "5.3 pg/10^5 and 9.6 pg/10^5"}, {"measurement": "Concentration (CCL5/RANTES)", "setting": "[6]", "result": 36.2, "unit": "pg/mL"}, {"measurement": "MFI (Bead name: CCL5/RANTES)", "setting": "[6]", "result": 50.5}, {"measurement": "conc/live cell (CCL5/RANTES)", "setting": "[6]", "result": 7.1, "unit": "pg/10^5"}, {"measurement": "Concentration (CCL5/RANTES)", "setting": "[7]", "result": "31.7 pg/mL and 40.7 pg/mL"}, {"measurement": "MFI (Bead name: CCL5/RANTES)", "setting": "[7]", "result": "43.5 and 57.5"}, {"measurement": "conc/live cell (CCL5/RANTES)", "setting": "[7]", "result": "7.2 pg/10^5 and 7.0 pg/10^5"}, {"measurement": "Concentration (CCL5/RANTES)", "setting": "[8]", "result": 35.3, "unit": "pg/mL"}, {"measurement": "MFI (Bead name: CCL5/RANTES)", "setting": "[8]", "result": 49.0}, {"measurement": "conc/live cell (CCL5/RANTES)", "setting": "[8]", "result": 6.4, "unit": "pg/10^5"}, {"measurement": "Concentration (CCL5/RANTES)", "setting": "[9]", "result": "33.0 pg/mL and 37.6 pg/mL"}, {"measurement": "MFI (Bead name: CCL5/RANTES)", "setting": "[9]", "result": "45.5 and 52.5"}, {"measurement": "conc/live cell (CCL5/RANTES)", "setting": "[9]", "result": "6.0 pg/10^5 and 6.8 pg/10^5"}, {"measurement": "Concentration (CCL5/RANTES)", "setting": "[10]", "result": 79.0, "unit": "pg/mL"}, {"measurement": "MFI (Bead name: CCL5/RANTES)", "setting": "[10]", "result": 136.0}, {"measurement": "conc/live cell (CCL5/RANTES)", "setting": "[10]", "result": 12.5, "unit": "pg/10^5"}, {"measurement": "Concentration (CCL5/RANTES)", "setting": "[11]", "result": "109.6 pg/mL and 48.3 pg/mL"}, {"measurement": "MFI (Bead name: CCL5/RANTES)", "setting": "[11]", "result": "201.5 and 70.5"}, {"measurement": "conc/live cell (CCL5/RANTES)", "setting": "[11]", "result": "17.1 pg/10^5 and 7.9 pg/10^5"}, {"measurement": "Concentration (CCL5/RANTES)", "setting": "[12]", "result": 67.1, "unit": "pg/mL"}, {"measurement": "MFI (Bead name: CCL5/RANTES)", "setting": "[12]", "result": 107.0}, {"measurement": "conc/live cell (CCL5/RANTES)", "setting": "[12]", "result": 10.1, "unit": "pg/10^5"}, {"measurement": "Concentration (CCL5/RANTES)", "setting": "[13]", "result": "79.2 pg/mL and 55.0 pg/mL"}, {"measurement": "MFI (Bead name: CCL5/RANTES)", "setting": "[13]", "result": "131.5 and 82.5"}, {"measurement": "conc/live cell (CCL5/RANTES)", "setting": "[13]", "result": "12.4 pg/10^5 and 7.9 pg/10^5"}]}]}
